Results from US20260125359A1, “HETEROARYL COMPOUNDS AS MULTI-TARGET PROTEIN KINASE INHIBITORS” (FUJIAN HAIXI PHARMACEUTICALS CO., LTD., priority 2023, published 2026).

Key:
[1] = target: CSF-1R (Homo sapiens, UniProt P07333); test: CSF-1R in vitro kinase activity assay (HTRF kinEASE TK); format: biochemical; conditions: for inhibition at 0.01 µM: compound 10 nM, read-out: CSF-1R inhibition rate, 10 nM; for inhibition at 0.1 µM: compound 100 nM, read-out: CSF-1R inhibition rate, 100 nM
From the text: (§1) CSF-1R, PDGFR-α, KDR (VEGFR2) and KIT in vitro Kinase Activity Assay:
(§2) • ENVISION (Perkinelmer, 2104) • White 384-well MicroPlate (Cat #264706, Nunc) • HTRF kinEASE TK kit main reagents (Cat #62TKOPEC, Cisbio) • TK-biotin substrate • Streptavidin-XL665 • TK Antibody-Cryptate • 5× Enzymatic buffer (5×KB) • Staphylococcal enterotoxin B (SEB) • HTRF Detection buffer • CSF-1R (Cat #PV3249, Invitrogen) • PDGFR-α (Cat #PV3811, Invitrogen) • KDR (Cat #PV3660, Invitrogen) • KIT (Cat #08-156, Carna) • ATP 10 mM (Cat #PV3227, Invitrogen) • DTT 1 M (Cat #D5545, Sigma) • MgCl2 1 M (Cat #M8266, Sigma) • MnCl2 1 M (Cat #244589, Sigma)
(§3) Dilute Substrate-TK and ATP to 5× of the reaction concentration using 1× Kinase Buffer.
(§4) Prepare the 5× enzyme working solution using 1× Kinase Buffer.
(§5) Prepare the 4×Sa-XL665 working solution using Detection Buffer.
(§6) Dilute TK-Ab-Cryptate 100 times using Detection Buffer to prepare the working solution.
(§7) After all reagents were prepared according to the methods described above, except for the enzyme, they were equilibrated to room temperature before starting the sample addition. • a) First, 2.5% DMSO solutions were prepared separately using the pre-prepared 1× kinase buffer (DMSO concentrations that were too high could affect the reaction, so the final concentration of DMSO was controlled at 1%). Then, the corresponding 2.5% DMSO solution for the enzyme was used to dilute the test compounds. Compounds were screened with two concentrations of 100 nM and 10 nM. Except for the control wells, 4 μL of the diluted test compound solution was added to the reaction wells, and 4 μL of the pre-prepared 2.5% DMSO solution was added to the control wells. • b) 2 μL of the pre-prepared TK-biotin substrate solution at the corresponding concentration for the kinase was added to all reaction wells. • c) 2 μL of the pre-prepared enzyme solution at the corresponding concentration was added to all reaction wells except the negative control wells. For the negative control wells, 2 μL of 1× kinase buffer corresponding to the enzyme was added to make up the volume. The plate was sealed with sealing film, mixed gently, and incubated at room temperature for 10 min to allow the compounds to fully interact with the enzyme. • d) 2 μL of the ATP solution at the corresponding concentration for the enzyme was added to all reaction wells to initiate the kinase reaction. ATP concentrations and reaction times for enzyme screening are shown in Table 26 • e) Five minutes before the end of the kinase reaction, the detection solution was prepared. The detection buffer from the kit was used to prepare detection solutions for Streptavidin-XL665 and TK antibody europium cryptate (1:100) at the appropriate concentrations for the two enzymes. • f) After the kinase reaction was completed, 5 μL of the diluted Streptavidin-XL665 solution was added to all reaction wells. After mixing, the diluted TK antibody europium cryptate detection solution was immediately added. • g) The plate was sealed and mixed, incubated at room temperature for 1 hour, and the fluorescence signal was detected using the ENVISION (PerkinElmer) instrument (excitation at 320 nm, emission at 665 nm and 615 nm). The inhibition rate for each well was calculated based on the full-activity control wells and background signal wells, and the average value of the replicates was taken.

[2] = target: KDR (VEGFR2) (Homo sapiens, UniProt P35968); test: KDR (VEGFR2) in vitro kinase activity assay (HTRF kinEASE TK); format: biochemical; conditions: for inhibition at 0.01 µM: compound 10 nM, read-out: VEGFR2 inhibition rate, 10 nM; for inhibition at 0.1 µM: compound 100 nM, read-out: VEGFR2 inhibition rate, 100 nM
KDR (VEGFR2), sequence (P35968 20-1356): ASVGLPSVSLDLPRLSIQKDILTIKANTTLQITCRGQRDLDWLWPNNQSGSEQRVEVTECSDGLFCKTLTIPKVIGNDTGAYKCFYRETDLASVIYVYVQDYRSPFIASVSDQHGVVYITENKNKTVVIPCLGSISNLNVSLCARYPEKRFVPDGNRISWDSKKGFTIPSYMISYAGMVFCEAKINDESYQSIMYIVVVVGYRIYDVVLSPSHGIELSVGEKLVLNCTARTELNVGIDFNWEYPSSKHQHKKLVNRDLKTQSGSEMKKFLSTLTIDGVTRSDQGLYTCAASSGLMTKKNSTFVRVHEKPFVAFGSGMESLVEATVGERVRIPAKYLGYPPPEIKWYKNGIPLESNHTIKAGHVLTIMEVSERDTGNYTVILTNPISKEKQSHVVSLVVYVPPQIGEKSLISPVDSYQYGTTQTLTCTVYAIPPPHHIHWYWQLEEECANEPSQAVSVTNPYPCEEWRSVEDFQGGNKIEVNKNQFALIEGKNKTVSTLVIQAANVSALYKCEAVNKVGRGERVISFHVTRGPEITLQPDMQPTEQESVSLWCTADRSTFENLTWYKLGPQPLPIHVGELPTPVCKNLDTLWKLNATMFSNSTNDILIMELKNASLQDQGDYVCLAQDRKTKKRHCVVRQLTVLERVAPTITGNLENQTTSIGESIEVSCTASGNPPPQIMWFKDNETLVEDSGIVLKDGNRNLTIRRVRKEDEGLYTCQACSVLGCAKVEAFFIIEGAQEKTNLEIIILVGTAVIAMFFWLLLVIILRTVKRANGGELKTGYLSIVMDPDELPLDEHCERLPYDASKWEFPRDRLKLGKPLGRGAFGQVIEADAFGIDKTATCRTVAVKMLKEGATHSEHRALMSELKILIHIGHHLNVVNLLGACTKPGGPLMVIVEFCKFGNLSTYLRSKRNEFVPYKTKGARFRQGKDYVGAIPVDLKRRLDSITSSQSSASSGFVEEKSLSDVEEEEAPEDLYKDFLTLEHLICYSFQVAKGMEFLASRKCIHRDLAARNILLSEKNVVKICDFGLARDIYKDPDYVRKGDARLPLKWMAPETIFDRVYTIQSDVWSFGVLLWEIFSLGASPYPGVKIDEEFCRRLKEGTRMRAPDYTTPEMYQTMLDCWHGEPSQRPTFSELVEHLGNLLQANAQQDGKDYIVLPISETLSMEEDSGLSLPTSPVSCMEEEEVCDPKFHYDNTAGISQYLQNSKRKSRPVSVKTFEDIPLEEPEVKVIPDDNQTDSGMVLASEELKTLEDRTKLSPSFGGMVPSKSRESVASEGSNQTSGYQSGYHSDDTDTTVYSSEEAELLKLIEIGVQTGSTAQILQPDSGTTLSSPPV
From the text: as §1, §2, §3, §4, §5, §6, §7

CSF-1R, sequence (P07333 20-972): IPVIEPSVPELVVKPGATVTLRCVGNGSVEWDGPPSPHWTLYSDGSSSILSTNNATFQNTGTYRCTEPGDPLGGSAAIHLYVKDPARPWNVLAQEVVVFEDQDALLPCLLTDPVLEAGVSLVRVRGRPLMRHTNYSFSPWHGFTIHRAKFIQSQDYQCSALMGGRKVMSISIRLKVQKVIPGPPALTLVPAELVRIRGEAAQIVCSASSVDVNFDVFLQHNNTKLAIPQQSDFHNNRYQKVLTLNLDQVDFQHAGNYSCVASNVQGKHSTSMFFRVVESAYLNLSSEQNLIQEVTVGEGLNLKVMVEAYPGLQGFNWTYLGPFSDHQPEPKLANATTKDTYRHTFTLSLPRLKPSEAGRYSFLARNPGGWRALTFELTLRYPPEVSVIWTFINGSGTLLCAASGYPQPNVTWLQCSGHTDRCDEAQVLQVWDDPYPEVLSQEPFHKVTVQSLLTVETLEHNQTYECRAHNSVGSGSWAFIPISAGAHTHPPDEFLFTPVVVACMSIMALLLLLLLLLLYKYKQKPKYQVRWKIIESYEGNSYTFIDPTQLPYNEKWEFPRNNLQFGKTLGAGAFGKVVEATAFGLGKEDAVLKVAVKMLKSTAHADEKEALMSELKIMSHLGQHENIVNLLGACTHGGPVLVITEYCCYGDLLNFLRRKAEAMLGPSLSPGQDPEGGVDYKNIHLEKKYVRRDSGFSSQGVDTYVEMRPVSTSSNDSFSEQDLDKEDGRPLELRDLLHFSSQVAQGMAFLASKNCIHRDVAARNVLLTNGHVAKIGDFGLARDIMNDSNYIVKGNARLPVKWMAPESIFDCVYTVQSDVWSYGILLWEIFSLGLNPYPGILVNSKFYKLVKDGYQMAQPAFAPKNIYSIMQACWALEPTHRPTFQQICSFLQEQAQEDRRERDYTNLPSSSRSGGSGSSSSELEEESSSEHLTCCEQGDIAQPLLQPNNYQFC

Structure (SMILES) | inhibition at 0.01 µM [1] [%] | inhibition at 0.1 µM [1] [%] | inhibition at 0.01 µM [2] [%] | inhibition at 0.1 µM [2] [%]
Cn1cc2ncc(O[C@H]3CCc4c(C(=O)Nc5nn(C)c6ccccc56)cccc43)cc2n1 [Compound 76al] | 105 | 103 | 99.1 | 95.6
Cn1cc2ncc(O[C@H]3CCc4c(C(=O)Nc5nn(C)c6cccc(F)c56)cccc43)cc2n1 [Compound 76aw] | 65.1 | 99.1 | 89.9 | 101
Cc1cccc(NC(=O)c2cccc3c2CC[C@@H]3Oc2cnc3cn(C)nc3c2)n1 [Compound 76bd] | 15.3 | 94.1 | 93.2 | 97
CN(c1cnc2cn(C)nc2c1)[C@H]1CCc2c(C(=O)Nc3cncc(Cl)c3)cccc21 [Compound 80k] | 73.7 | 96.5 | 43 | 91.9
CN(c1cnc2cn(C)nc2c1)[C@H]1CCc2c(C(=O)Nc3nn(C)c4ccccc34)cccc21 [Compound 80l] | 24.3 | 98.4 | 95 | 100
Cn1ncc2ncc(N[C@H]3CCc4c(Nc5cc(C(C)(C)C)on5)cccc43)nc21 [Compound 86, (S)—N^4-(5-(tert-butyl)isoxazol-3-yl)-N1-(1-methyl-1H-pyrazolo[3,4-b]pyrazin-6-yl)-2,3-dihydro-1H-indene-1,4-diamine] | 46.6 | 95.9 | 12.9 | 70.1
